Measurements reported in patent US10942183B2, “Methods of detecting progesterone receptor and of detecting an expression level” (REGENTS OF THE UNIVERSITY OF MINNESOTA, priority 2017, dated 2021).

Columns and labels:
Format in all cases: cell-based
[1] = system: SLC37A2 expression in BT474 cells; assay: SLC37A2 mRNA expression by RT-qPCR in BT474 cells; details: unmodified BT474 cells, progestin plus onapristone
Protocol: For reverse transcription quantitative polymerase chain reaction (RT-qPCR) assays, 5×10^5 cells/well were plated in six-well dishes, serum starved in modified IMEM for one day before treatment. RNA was extracted using TriPure reagent (Roche, Basel, Switzerland) and cDNA was created using the qScript cDNA SuperMix kit (Quanta Biosciences, Beverly, Mass.). Relative expression levels were determined by qPCR assays performed on a Roche Light-Cycler II using SYBR green master-mix (Roche, Basel, Switzerland). Target gene quantification levels were normalized to the expression of standard housekeeper genes: TBP, ACTB, 18S, and/or GAPDH.
PR cooperation with one or more RUNX factors may be a mechanism for promoter selection by uniquely modified receptors. The family of RUNX transcription factors (RUNX1, 2, and 3) has complex roles in development and tumor formation with both tumor suppressive and tumor-promoting activities. […] From the GSEA results, SLC37A2, a candidate PR target gene containing multiple RUNX2 binding motifs immediately upstream and within the gene, was identified (FIG. 7A). SLC37A2 is a glucose-6-phosphate transporter expressed in monocytes as well as breast and cervical tissues. […] PR/progestin-dependent regulation of SLC37A2 mRNA expression in multiple cell line models was thus measured. […]

[2] = system: BT474 cells; assay: Mammosphere formation in unmodified HER2+ BT474 cells
Protocol: Primary Mammospheres: Adherent cells were washed with PBS and dissociated enzymatically in 0.25% trypsin-EDTA (Invitrogen Corporation, Carlsbad, Calif.). Cells were sieved through a 40-μm sieve (BD FALCON, BD Biosciences, Bedford, Mass.) and analyzed microscopically for single-cellularity. Single cells were plated in ultra-low attachment plates (Corning, Inc., Corning, N.Y.) and cultured in a humid incubator. […] Mammosphere Forming Efficiency (MFE) % was calculated by the number of mammospheres per well/number of cells seeded per well.
Secondary Mammospheres: Primary mammospheres were collected by centrifugation (5 min, 1000 rpm), and dissociated enzymatically in 0.25% typsin-EDTA. Cells were sieved through a 40-μm tip strainer (Bel-Art SP Scienceware, South Wayne, N.J.) and analyzed microscopically for single-cellularity. […] Mammosphere Forming Efficiency (MFE) % was calculated by the number of mammospheres per well/number of cells seeded per well.
The results were also validated in unmodified ER+/PR+BT474 cells. […] In this “high-kinase” context, PRs are readily phosphorylated on Ser294.

[3] = system: human breast tumor tissue (tumor explants); assay: Breast tumor explants cultured ex vivo, Ki-67 IHC (proliferation); details: ER+/PR+ tumor explants, 48 hours; progesterone 10 nM; estrogen 1 nM and 10 nM; n=6
Excerpt: De-identified breast tumor samples were collected after surgery and immediately processed for tissue explant maintenance on sponges in cell culture medium, as previously described (Ravindranathan et al. Nature Communications 2013, 4:1923). Samples were derived from six patients pathologically diagnosed with invasive ductal carcinoma (IDC) and scored positive for ER (94-100%) and PR (1-100%), and negative for HER2 expression. Tissue explants were starved in media containing hormone-stripped FBS for 24 hours, and then treated for 48 hours with (1) vehicle, (2) 1 nM estradiol, (3) 10 nM estradiol, (4) 1 nM progesterone, (5) 10 nM progesterone prior to processing for quantitation of Ki-67 levels by IHC. Across treatment conditions, statistical significance was tested for using one-way analysis-of-variance (ANOVA) followed by pairwise testing of all treatment groups using the TukeyHSD post-test with R statistical software (R Core Team: R: A language and environment for statistical computing. R Foundation for Statistical Computing, Vienna, Austria 2015, [available on the world wide web at r-project.org/]). In additional experiments, six explants were similarly treated with estrogen or progesterone (2 hours) but in combination with 1 uM U0126 (to inhibit ERKs 1/2) and phospho-Ser294 PR levels were measured by IHC. […]

SMILES | effect on progestin-stimulated SLC37A2 mRNA expression [1] | effect on basal and progestin-stimulated primary mammosphere formation ([2]; BT474, onapristone 100 or 1000 nM without or with R5020 10 nM) | secondary mammosphere formation ([2]; BT474, onapristone-containing media) | percentage of Ki67-positive cells compared to vehicle treatment [3]
CN(C)c1ccc([C@H]2C[C@]3(C)[C@@H](CC[C@]3(O)CCCO)[C@@H]3CCC4=CC(=O)CCC4=C32)cc1 [onapristone] | effectively blocked | effectively reduced both basal and progestin-stimulated primary mammosphere formation | failed to form | 
CC(=O)[C@H]1CC[C@H]2[C@@H]3CCC4=CC(=O)CC[C@]4(C)[C@H]3CC[C@]12C [progesterone] |  |  |  | significantly higher percentage of Ki67-positive cells
